Consider 18 compounds from US20250250230A1, “HETEROCYCLIC COMPOUND” (TAKEDA PHARMACEUTICAL COMPANY LIMITED, priority 2022, published 2025).

SMILES strings stand for the structures.

The target in this test is T1, human orexin type 2 receptor (Homo sapiens, UniProt O43614).
T1 construct: expressed in transfected cells
T1 sequence (O43614 1-444): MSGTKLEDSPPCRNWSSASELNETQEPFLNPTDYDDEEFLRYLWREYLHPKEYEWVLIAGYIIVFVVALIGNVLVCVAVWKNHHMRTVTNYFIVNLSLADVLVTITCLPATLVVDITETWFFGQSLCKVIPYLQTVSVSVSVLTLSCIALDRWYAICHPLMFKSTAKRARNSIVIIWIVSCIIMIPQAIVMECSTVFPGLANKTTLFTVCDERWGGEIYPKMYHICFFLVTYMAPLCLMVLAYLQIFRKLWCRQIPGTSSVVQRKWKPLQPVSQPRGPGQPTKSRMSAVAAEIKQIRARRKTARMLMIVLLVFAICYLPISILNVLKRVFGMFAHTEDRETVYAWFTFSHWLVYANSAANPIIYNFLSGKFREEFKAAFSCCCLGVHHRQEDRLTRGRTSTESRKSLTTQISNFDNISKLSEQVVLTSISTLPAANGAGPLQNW
The test is described as follows: Measurement of orexin type 2 receptor agonist activity (calcium fluorescence, Fluo-4 AM, FDSS). The settings on record: test compound 3 μM; CHO cells expressing human OX2 receptor; DMSO = 0%, orexin A (human) = 100%. The test is classed as cell-based. A digest of the protocol:
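Agonist response scaled between vehicle (0%) and human orexin A at 10 nM final (100%), from 2-min kinetic Fluo-4 fluorescence reads. Stable hOX2R CHO-K1 clone, dye-loaded in HBSS/20 mM HEPES/0.1% BSA with 1.25 mM probenecid before compound addition.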

Take `CS(=O)(=O)NC([C@@H]1CCN1C(=O)[C@@H]1C[C@@]1(F)c1ccccc1-c1c(F)cccc1F)C1(O)CC1` (stereo partly drawn) [Example 418, N-[(R)-{(2S)-1-[(1S,2S)-2-(2′,6′-difluoro[1,1′-biphenyl]-2-yl)-2-fluorocyclopropane-1-carbonyl]azetidin-2-yl}(1-hydroxycyclopropyl)methyl]methane-sulfonamide, or N-[(S)-{(2S)-1-[(1S,2S)-2-(2′,6′-difluoro[1,1′-biphenyl]-2-yl)-2-fluorocyclopropane-1-carbonyl]azetidin-2-yl}(1-hydroxycyclopropyl)methyl]methanesulfonamide]: the “OX2R agonist activity (3 μM, %)” value is reported as 99%.

As for `CS(=O)(=O)N[C@H]1C[C@H](O)CN(C(=O)[C@@H]2C[C@H]2c2ccccc2-c2c(F)cccc2F)C1` [Example 319, N-{(3S,5S)-1-[(1R,2R)-2-(2′,6′-difluoro[1,1′-biphenyl]-2-yl)cyclopropane-1-carbonyl]-5-hydroxypiperidin-3-yl}methanesulfonamide], the “OX2R agonist activity (3 μM, %)” value was 101%. With `Cc1nnc(C2(NS(C)(=O)=O)CCN(C(=O)[C@@H]3C[C@@]3(F)c3ccccc3-c3c(F)cccc3F)C2)o1` (mixture of isomers) [Example 422, a mixture of N-[(3R)-1-[(1S,2S)-2-(2′,6′-difluoro[1,1′-biphenyl]-2-yl)-2-fluorocyclopropane-1-carbonyl]-3-(5-methyl-1,3,4-oxadiazol-2-yl)pyrrolidin-3-yl]methanesulfonamide and N-[(3S)-1-[(1S,2S)-2-(2′,6′-difluoro[1,1′-biphenyl]-2-yl)-2-fluorocyclopropane-1-carbonyl]-3-(5-methyl-1,3,4-oxadiazol-2-yl)pyrrolidin-3-yl]methanesulfonamide] the figure was 75%.

In the case of `CS(=O)(=O)NC[C@@H]1CN(C(=O)[C@@H]2C[C@H]2c2ccccc2-c2c(F)cccc2F)CCO1` [Example 283, N-({(2S)-4-[(1R,2R)-2-(2′,6′-difluoro[1,1′-biphenyl]-2-yl)cyclopropane-1-carbonyl]morpholin-2-yl}methyl)methanesulfonamide], the “OX2R agonist activity (3 μM, %)” value is listed as 100%.

As to `CCS(=O)(=O)NC[C@@H]1[C@@H](O)CN1C(=O)[C@@H]1C[C@@]1(F)c1ccccc1-c1c(F)cccc1F` [Example 382, N-({(2R,3S)-1-[(1S,2S)-2-(2′,6′-difluoro[1,1′-biphenyl]-2-yl)-2-fluorocyclopropane-1-carbonyl]-3-hydroxyazetidin-2-yl}methyl)ethanesulfonamide], the “OX2R agonist activity (3 μM, %)” value came out at 96%. The result for `C[C@H]1C[C@H](NS(C)(=O)=O)CN1C(=O)[C@@H]1C[C@H]1c1ccccc1-c1c(F)cccc1F` [Example 262, N-{(3S,5S)-1-[(1R,2R)-2-(2′,6′-difluoro[1,1′-biphenyl]-2-yl)cyclopropane-1-carbonyl]-5-methylpyrrolidin-3-yl}methanesulfonamide] reads 109%. With `CS(=O)(=O)NC1CCC2CN(C(=O)[C@@H]3C[C@H]3c3ccccc3-c3c(F)cccc3F)CC21F` (stereo partly drawn) [Example 340, N-{(3aR,4R,6aS)-2-[(1R,2R)-2-(2′,6′-difluoro[1,1′-biphenyl]-2-yl)cyclopropane-1-carbonyl]-3a-fluorooctahydrocyclopenta[c]pyrrol-4-yl}methanesulfonamide, or N-{(3aS,4S,6aR)-2-[(1R,2R)-2-(2′,6′-difluoro[1,1′-biphenyl]-2-yl)cyclopropane-1-carbonyl]-3a-fluorooctahydrocyclopenta[c]pyrrol-4-yl}methanesulfonamide] the figure was 94%; with `CS(=O)(=O)NC1CCCN(C(=O)C2CC2c2cccc(F)c2-c2ccccc2F)C1` (racemic) [Example 105, a mixture of rac-N-{(3R)-1-[(1R,2R)-2-(2′,6-difluoro[1,1′-biphenyl]-2-yl)cyclopropane-1-carbonyl]piperidin-3-yl}methanesulfonamide and rac-N-{(3S)-1-[(1R,2R)-2-(2′,6-difluoro[1,1′-biphenyl]-2-yl)cyclopropane-1-carbonyl]piperidin-3-yl}methanesulfonamide], 60%. As to `CC1C(C(=O)N2CCCC[C@H](NS(C)(=O)=O)C2)C1c1ccccc1-c1c(F)cccc1F` (mixture of isomers) [Example 311, a mixture of N-{(3S)-1-[(1R,2R,3S)-2-(2′,6′-difluoro[1,1′-biphenyl]-2-yl)-3-methylcyclopropane-1-carbonyl]azepan-3-yl}methanesulfonamide and N-{(3S)-1-[(1S,2S,3R)-2-(2′,6′-difluoro[1,1′-biphenyl]-2-yl)-3-methylcyclopropane-1-carbonyl]azepan-3-yl}methanesulfonamide], the “OX2R agonist activity (3 μM, %)” value is 98%. As for `Cc1ccc(C2CC2C(=O)N2CCC(NS(C)(=O)=O)C2)c(-c2c(F)cccc2F)c1` (racemic) [Example 136, a mixture of rac-N-{(3R)-1-[(1R,2R)-2-(2′,6′-difluoro-5-methyl[1,1′-biphenyl]-2-yl)cyclopropane-1-carbonyl]pyrrolidin-3-yl}methanesulfonamide and rac-N-{(3S)-1-[(1R,2R)-2-(2′,6′-difluoro-5-methyl[1,1′-biphenyl]-2-yl)cyclopropane-1-carbonyl]pyrrolidin-3-yl}methanesulfonamide], the “OX2R agonist activity (3 μM, %)” value stood at 110%. The result for `CS(=O)(=O)N[C@@H]1CN(C(=O)[C@@H]2C[C@@]2(F)c2ccccc2-c2c(F)cccc2F)CCC1(F)F` [Example 333, N-{(3R)-1-[(1S,2S)-2-(2′,6′-difluoro[1,1′-biphenyl]-2-yl)-2-fluorocyclopropane-1-carbonyl]-4,4-difluoropiperidin-3-yl}methanesulfonamide] reads 99%; that for `CS(=O)(=O)NC1CCN(C(=O)C2CC2c2ccccc2-c2c(F)cccc2F)CCC1(F)F` (racemic) [Example 212, a mixture of rac-N-{(4R)-1-[(1R,2R)-2-(2′,6′-difluoro[1,1′-biphenyl]-2-yl)cyclopropane-1-carbonyl]-5,5-difluoroazepan-4-yl}methanesulfonamide and rac-N-{(4S)-1-[(1R,2R)-2-(2′,6′-difluoro[1,1′-biphenyl]-2-yl)cyclopropane-1-carbonyl]-5,5-difluoroazepan-4-yl}methanesulfonamide], 91%; that for `CCS(=O)(=O)NC1CCCN(C(=O)C2CC2c2ccccc2-c2c(F)cccc2F)C1` (racemic) [Example 28, a mixture of rac-N-{(3R)-1-[(1R,2R)-2-(2′,6′-difluoro[1,1′-biphenyl]-2-yl)cyclopropane-1-carbonyl]piperidin-3-yl}ethanesulfonamide and rac-N-{(3S)-1-[(1R,2R)-2-(2′,6′-difluoro[1,1′-biphenyl]-2-yl)cyclopropane-1-carbonyl]piperidin-3-yl}ethanesulfonamide], 103%. With `CN(C)S(=O)(=O)N[C@H]1CCN(C(=O)[C@@H]2C[C@H]2c2c(F)cccc2-c2c(F)cccc2F)C1` [Example 309, N,N-dimethyl-N′-{(3S)-1-[(1R,2R)-2-(2′,3,6′-trifluoro[1,1′-biphenyl]-2-yl)cyclopropane-1-carbonyl]pyrrolidin-3-yl}sulfuric diamide] the figure was 97%. As to `CS(=O)(=O)NC[C@@H]1[C@H](CF)CN1C(=O)[C@@H]1C[C@@]1(F)c1ccccc1-c1c(F)cccc1F` [Example 398, N-{[(2S,3R)-1-[(1S,2S)-2-(2′,6′-difluoro[1,1′-biphenyl]-2-yl)-2-fluorocyclopropane-1-carbonyl]-3-(fluoromethyl)azetidin-2-yl]methyl}methanesulfonamide], the “OX2R agonist activity (3 μM, %)” value came to 97%.

`O=C([C@@H]1C[C@@]1(F)c1ccc(F)cc1-c1c(F)cccc1F)N1C[C@@H](F)[C@H]1CNS(=O)(=O)CBr` [Example 431, 1-bromo-N-({(2R,3R)-3-fluoro-1-[(1S,2S)-2-fluoro-2-(2′,5,6′-trifluoro[1,1′-biphenyl]-2-yl)cyclopropane-1-carbonyl]azetidin-2-yl}methyl)methanesulfonamide]: the “OX2R agonist activity (3 μM, %)” value was found to be 95%. With `CS(=O)(=O)NCC1CCN1C(=O)C1CC1c1ccccc1-c1c(F)cccc1F` (racemic) [Example 127, a mixture of rac-N-({(2R)-1-[(1R,2R)-2-(2′,6′-difluoro[1,1′-biphenyl]-2-yl)cyclopropane-1-carbonyl]azetidin-2-yl}methyl)methanesulfonamide and rac-N-({(2S)-1-[(1R,2R)-2-(2′,6′-difluoro[1,1′-biphenyl]-2-yl)cyclopropane-1-carbonyl]azetidin-2-yl}methyl)methanesulfonamide] the figure was 57%; with `CS(=O)(=O)N[C@H]1CCCCN(C(=O)C2CC2(F)c2ccccc2-c2c(F)cccc2F)C1` (mixture of isomers) [Example 291, a mixture of N-{(3S)-1-[(1R,2R)-2-(2′,6′-difluoro[1,1′-biphenyl]-2-yl)-2-fluorocyclopropane-1-carbonyl]azepan-3-yl}methanesulfonamide and N-{(3S)-1-[(1S,2S)-2-(2′,6′-difluoro[1,1′-biphenyl]-2-yl)-2-fluorocyclopropane-1-carbonyl]azepan-3-yl}methanesulfonamide], 93%.
